PubChem BioAssay (NCI)
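Five compound concentrations were applied to cells in 96-well plates for 48 hours; endpoints were derived by simple linear interpolation of the resulting dose-response curve. At the GI50, growth is halved. TGI: concentration producing complete growth inhibition.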

Columns and labels:
Test in all cases: NCI-60 cell line screen, 48 h
SN12C renal = test system: SN12C renal
786-0 renal = test system: 786-0 renal
A549 NSCLC = test system: A549 NSCLC
HCT-116 colon = test system: HCT-116 colon
SF-268 CNS = test system: SF-268 CNS
NCI-H226 lung = test system: NCI-H226 lung
MCF7 breast = test system: MCF7 breast
EKVX NSCLC = test system: EKVX NSCLC
HT29 colon = test system: HT29 colon
OVCAR-3 ovarian = test system: OVCAR-3 ovarian

Row | Structure (SMILES) | TGI (SN12C renal) | TGI (786-0 renal) | TGI (A549 NSCLC) | TGI (HCT-116 colon) | TGI (SF-268 CNS) | TGI (NCI-H226 lung) | TGI (MCF7 breast) | TGI (EKVX NSCLC) | TGI (HT29 colon) | TGI (OVCAR-3 ovarian) | GI50 (SN12C renal) | GI50 (A549 NSCLC) | GI50 (EKVX NSCLC) | GI50 (HT29 colon) | GI50 (HCT-116 colon) | GI50 (OVCAR-3 ovarian) | GI50 (SF-268 CNS) | GI50 (NCI-H226 lung) | GI50 (MCF7 breast)
1 | CCn1nc(-c2ccccc2)c2c1N(C)c1ccccc1-n1c(-c3ccccc3)nnc1-2 | 32.7 µM | 30.6 µM | 29.9 µM | 26.3 µM | 32.5 µM | 52.7 µM | 19.8 µM |  |  |  |  |  |  |  |  |  |  |  | 
2 | N#Cc1ccc(OC(=O)c2ccc(N=C(N)N)cc2)cc1 | > 100 µM | > 100 µM | > 100 µM | > 100 µM | > 100 µM | > 100 µM | > 100 µM | > 100 µM | > 100 µM | > 100 µM |  |  |  |  |  |  |  |  | 
3 | OCc1c2c(cc3c1CC1(C3)Cc3cc4c(c(CO)c3C1)CCC4)CCC2 | 32.4 µM | 27.7 µM | 30.9 µM | 26.4 µM |  | 28.5 µM | 44.6 µM | 30.5 µM | 32.4 µM | 28.3 µM |  |  |  |  |  |  |  |  | 
4 | [N-]=[N+]=C(C(=O)OCC#CCOC(=O)C(=[N+]=[N-])S(=O)(=O)c1ccccc1)S(=O)(=O)c1ccccc1 | > 10 µM | > 10 µM | > 10 µM | > 10 µM | > 10 µM | > 10 µM | > 10 µM | > 10 µM | > 10 µM | > 10 µM |  |  |  |  |  |  |  |  | 
5 | COC(=O)c1c(O)ccc2c1c1c(n2Cc2ccc(OC)cc2)C(=O)c2ccccc2C1=O | 7.35 µM | 28.5 µM | 21.6 µM | 19.7 µM | 55 µM | 25.8 µM | 26.7 µM | > 100 µM | 8.55 µM | 43.9 µM |  |  |  |  |  |  |  |  | 
6 | CC(C)=NNc1cnnc2ccc([N+](=O)[O-])cc12 | > 100 µM | > 100 µM | > 100 µM | > 100 µM | > 100 µM | > 100 µM | > 100 µM | > 100 µM | > 100 µM |  |  |  |  |  |  |  |  |  | 
7 | C/C=C1\CN2CCC34c5ccccc5N(C)C35OCC4(C(=O)OC)C1CC25 (stereo not drawn) | > 100 µM | > 100 µM | > 100 µM | > 100 µM | > 100 µM |  | > 100 µM | > 100 µM |  | > 100 µM |  |  |  |  |  |  |  |  | 
8 | O=S(=O)(O)c1ccc2c(N=Nc3ccccc3)c(O)c(S(=O)(=O)O)cc2c1 | > 100 µM | > 100 µM | > 100 µM | > 100 µM | > 100 µM | > 100 µM | > 100 µM | > 100 µM |  | > 100 µM |  |  |  |  |  |  |  |  | 
9 | CSc1nc2c(c(=O)n1C)N=C(c1ccc(Cl)cc1)CC(c1ccccc1)N2 (stereo not drawn) | 39.4 µM | > 100 µM | 73.7 µM | > 100 µM |  | 42.6 µM | 27.2 µM | 65.1 µM | 31.6 µM | > 100 µM |  |  |  |  |  |  |  |  | 
10 | CC1(C)CC(=O)C2=C(C1)NC(SCC(=O)O)=C(C#N)C2c1ccc(Br)cc1 (stereo not drawn) |  | > 100 µM | > 100 µM | > 100 µM | > 100 µM | > 100 µM | > 100 µM | > 100 µM | > 100 µM | > 100 µM |  |  |  |  |  |  |  |  | 
11 | O=C(Nc1ccc(-n2cc(-c3ccncc3)c(-c3ccc(O)c(Cl)c3)n2)cc1)c1cc(Cl)cc(Cl)c1 | > 32.5 µM |  | > 32.5 µM | > 32.5 µM | > 32.5 µM | > 32.5 µM | > 32.5 µM | > 32.5 µM | 5.11 µM | > 32.5 µM | 2.44 µM | 2.86 µM | 18.2 µM | 1.01 µM | 1.57 µM | 1.91 µM | 3.85 µM | > 32.5 µM | 3.33 µM
